test system: Rattus norvegicus; test: Fibrinolytic activity in ip dosed rat assessed as blood clot lysis for 4 hrs; format: functional; settings: not given

SMILES | ED50 [mg/kg]
COc1ccc(C(N)CCCCCCCC2NCCc3cc(OC)c(OC)cc32)cc1OC.Cl (racemic; 31b) | 0.5

same assay, conditions: Rattus norvegicus, Blood clot, ip, 4 h; read-out: ED50

SMILES | ED50 [mg/kg]
COc1ccc2c(c1)CCNC2CCCCC1NCCc2cc(OC)ccc21.Cl (centres undefined) | 2
COc1ccc2[nH]c3c(c2c1)CCNC3CCCCC1NCCc2c1[nH]c1ccc(OC)cc21.Cl (centres undefined) | 6
COc1ccc(C(N)CCCCC(N)c2ccc(OC)c(OC)c2)cc1OC.Cl (centres undefined) | 0.4
COc1cc2c(cc1OC)C(CCCCC1NCCc3cc(OC)c(OC)cc31)NCC2.Cl (centres undefined) | 0.3
COc1ccc(C(N)CCCCC2NCCc3cc(OC)c(OC)cc32)cc1OC.Cl (centres undefined) | 0.9
COc1cc2c(cc1OC)C(CCCCC1NCCCc3cc(OC)c(OC)cc31)NCCC2.Cl (centres undefined) | 0.7
COc1ccc2c(c1)CCNC2CCCCCCCC1NCCc2cc(OC)ccc21.Cl (centres undefined) | 6
COc1ccc(C(N)CCCCCCCC2NCCc3cc(OC)c(OC)cc32)cc1OC.Cl (racemic; 31a) | 0.7
COc1ccc2[nH]c3c(c2c1)CCNC3CCCCCCCC1NCCc2c1[nH]c1ccc(OC)cc21.Cl (centres undefined) | 2
COc1ccc(CC(N)CCCCC(N)Cc2ccc(OC)c(OC)c2)cc1OC.Cl (centres undefined) | 15
COc1cc(CCCCCCc2cc(OC)c(OC)cc2C(C)N)c(C(C)N)cc1OC.Cl (centres undefined) | 4
COc1ccc(C(N)CCCCCCC2NCCc3cc(OC)c(OC)cc32)cc1OC.Cl (centres undefined) | 1
NCCc1c[nH]c2ccc(O)cc12 [SEROTONIN] | 1

Source: ChEMBL document CHEMBL3272236, “Synthesis and evaluation of 1,omega-diaryl-l,omega-alkanediamines related to the fibrinolytic bis(tetrahydroisoquinolines) and bis(benzylamines)” (1976)
